This is an account of results in patent US11771661B2, “Method of treating post-traumatic stress disorder” (ICAHN SCHOOL OF MEDICINE AT MOUNT SINAI, priority 2013, dated 2023).

For data set [1] the following is noted: cited from earlier work.
Data set [2] concerns patients with treatment resistant depression (TRD), co-morbid current PTSD. Kind of data set: Example 1: open-label ketamine infusion in treatment resistant depression patients, case studies with co-morbid PTSD. The class given is in vivo, human. To be noted: for IES score: baseline 48. On the procedure: In a ketamine infusion study in patients with treatment resistant depression (TRD), ketamine (0.5 mg/kg IV) was administered open-label and combined with pre-infusion treatment with a single oral dose of lamotrigine (300 mg) or placebo administered under double-blind conditions. Preliminary analyses were recently performed on a sample of 16 patients. […] A strong positive correlation between individual childhood trauma (abuse and/or neglect) and the antidepressant response (MADRS: r=0.55, p=0.03; QIDS-SR: r=0.59, p=0.02).
The effect of ketamine on Hamilton Anxiety Rating Scale (HAM-A) scores was also measured. A strong positive correlation between the magnitude of the ketamine-induced reduction in HAM-A scores and personal history of childhood trauma measured using the Childhood Trauma Questionnaire (CTQ; n=15, r=0.59, p=0.02) was observed. […] Patient A, suffered from distressing intrusive memories, nightmares, flashbacks, hypervigilance, poor concentration, and depressed mood. Patient A described their PTSD and MDD symptoms as chronic, but having intensified over time, due to ongoing events in their life.
After observing the magnitude of the therapeutic effect of ketamine in Patient A, TRD patients with a co-morbid current PTSD diagnosis were administered the Clinician-Administered PTSD Scale (CAPS) and the Impact of Events Scale (IES) before and after ketamine infusion. […] The day after ketamine infusion, Patient M reported that they felt an “intellectual distance” from the emotional content of prior traumatic events that allowed them to feel more in control. Patient M further described feeling relieved of a compulsion to continuously analyze their past, identify ways in which they might have circumvented trauma, and subsequently punish themself for their failure to avoid trauma. One week post-infusion, Patient M's CAPS score had dropped by 90% and could be considered a remission (defined as CAPS<20). Two weeks post-infusion, Patient M maintained their “intellectual distance” from the emotional content associated with their trauma.

[3] abbreviates: 0.5 mg/kg IV open-label, 16 TRD patients.

`CNC1(c2ccccc2Cl)CCCCC1=O` (stereo not shown) [ketamine, 2-(2-chlorophenyl)-2-(methylamino)-cyclohexanone]: in data set [1] (in vivo), the “dose at which mild adverse effects (dysphoria, hallucinations) can occur” value is recorded as “greater than 50 mg”. Moreover, the “total intranasal dose usually required for mild adverse effects” value in data set [1] (intranasal) was “greater than 100 mg”. Moreover, the “MADRS clinical depression scores, baseline to 24 hours post-infusion” value in data set [2] (setting [3]) was “reduced clinical depression scores”. Further, in data set [2] (setting [3]), the “self-reported mood, QIDS-SR” value was “improved”. Also, the IES score in data set [2] (Patient M, +1 week) stood at 5; in data set [2] (Patient M, +2 weeks), 15; in data set [2] (Patient M, +40 min post-ketamine) it was 33; in data set [2] (Patient M, +240 min), 3; in data set [2] (Patient M, +24 hours), 16; in data set [2] (Patient M, +72 hours) it was 5. Besides, the CAPS score was determined as 8 in data set [2] (Patient M, +1 week, baseline 81) and 27 in data set [2] (Patient M, +2 weeks, baseline 81). Also, the “drop in CAPS score” value in data set [2] (Patient M, one week post-infusion, baseline 81) is given as 90%.
